Data from US20210395305A1, “PEPTIDE FOR COSMETIC APPLICATION” (COLOSSEUM COMBINATORIAL CHEMISTRY CENTRE FOR TECHNOLOGY …, priority 2018, published 2021).
Like-named read-outs stand apart in the source and are kept apart here. Ends that are not written are not given here.

Assays:
[1] = test system: TrkA; assay: TrkA phosphorylation by Western Blot; assay type: in vivo, rat; details: dermis samples, with or without LFS, compared to vehicle controls; FIG. 4
[2] = molecular target: T1, NGF receptors, TrkA and p75 (Rattus norvegicus, UniProt P35739); assay: PC12-Luci c-fos promoter luciferase reporter assay; assay type: cell-based; details: for Ec50 (luminescence): PC12-Luci cells, 4 h at 37° C.
T1 construct: PC12-Luci cells, which endogenously express the NGF receptors, TrkA and p75; endogenous in cells; host or cells: PC12-Luci (rat pheochromocytoma clone B9 with the human c-fos promoter-luciferase reporter)
T1 sequence (P35739 33-799): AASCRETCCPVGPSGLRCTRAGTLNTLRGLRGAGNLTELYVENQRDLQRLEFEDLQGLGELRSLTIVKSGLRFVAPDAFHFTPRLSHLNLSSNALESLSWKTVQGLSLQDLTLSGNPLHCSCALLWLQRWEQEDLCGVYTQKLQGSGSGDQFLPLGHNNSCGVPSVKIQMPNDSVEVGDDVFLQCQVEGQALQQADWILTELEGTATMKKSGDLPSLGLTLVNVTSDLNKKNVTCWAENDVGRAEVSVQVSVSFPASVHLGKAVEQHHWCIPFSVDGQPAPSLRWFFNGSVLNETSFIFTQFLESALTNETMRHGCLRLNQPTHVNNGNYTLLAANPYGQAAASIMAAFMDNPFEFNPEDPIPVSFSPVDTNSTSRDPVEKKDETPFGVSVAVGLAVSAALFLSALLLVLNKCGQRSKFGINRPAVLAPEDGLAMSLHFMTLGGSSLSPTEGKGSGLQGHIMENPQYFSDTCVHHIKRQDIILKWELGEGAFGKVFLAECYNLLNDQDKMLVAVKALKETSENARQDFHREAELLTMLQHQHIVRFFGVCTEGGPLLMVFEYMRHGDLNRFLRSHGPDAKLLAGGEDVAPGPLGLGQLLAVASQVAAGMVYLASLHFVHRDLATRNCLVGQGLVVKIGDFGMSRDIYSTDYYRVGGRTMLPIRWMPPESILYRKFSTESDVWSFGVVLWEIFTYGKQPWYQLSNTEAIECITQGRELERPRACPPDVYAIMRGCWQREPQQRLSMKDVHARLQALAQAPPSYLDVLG
Source text: NGF treatment of rat pheochromocytoma cell line (PC12) results in c-fos mRNA and protein expression (J. Milbrandt, “Nerve growth factor rapidly induces c-fos mRNA in PC12 rat pheochromocytoma cells”, Proc Natl Acad Sci USA. 1986 July; 83(13):4789-93).
Starting from the work of Milbrandt, the Applicant monitored the activation of NFG receptor by using a clone (B9) stably transfected with the human c-fos promoter driving a luciferase reporter gene (PC12-Luci). This clone was used to set up a functional and quantitative assay for the characterization of the activity of NGF1-14.
The experiments were performed in PC12-Luci cells, which endogenously express the NGF receptors, TrkA and p75. Cells were maintained in the following complete culture medium comprising: • DMEM-F12 mixture (DMEM-F12 Glutamax; Life Technologies, GIBCO 10565-018) • 5% fetal bovine serum (FBS, Sigma Aldrich, F7524) • 10% horse serum (HS, Sigma Aldrich, H1138) • 1% penicillin-streptomycin (Life Technologies, GIBCO 15140-122)
For passaging, cells were gently washed with PBS and then incubated with trypsin for 5 min at room temperature or 37° C. Media was added and cells were resuspended (6-8 times).
Experiments were performed in sestuplicate, in black 96 well previously coated with 50 μg/ml collagen type I.
PC-12-Luci cells were seeded at 25000/well in 100 μl complete growth medium. 24h later, cell medium was carefully removed. Cells were then incubated with five concentrations (range 30 ng/ml-300 μg/ml, 1:10 serial dilutions) of NGF1-14 in standard Tyrode buffer with 0.1% BSA (50 μl/well) for 4 h at 37° C. The reference Negermin™ compound (by MimeTech Srl) has been added at 30 μg/ml, as reference. The stock solution of NGF1-14 was resuspended in sterile water, aliquoted and stored at −20° C. The stock solution of Negermin™ compound was resuspended in formulation buffer and stored at −20° C.
After the incubation, the basal level of luminescence was monitored for 30 seconds, by using EnSpire multimode plate reader (PerkinElmer). Then, a Triton-Luciferin mix was added to cells (50 μl/well), in a 1:1 ratio, leading to cell lysis. The obtained luminescence signal was monitored for other 60 seconds. […]
All luminescence values were normalized versus the basal level of luminescence. The response value was calculated as the mean of luminescence of the kinetic recorded.
Data were further analyzed (e.g. calculation of dose-response curves and EC50 values) and graphs plotted using GraphPad Prism (GraphPad Software, Inc.). […]

[3] = test system: Elastin; assay: Elastin in dermis by Elisa, single administration test; assay type: in vivo, rat
Experimental: (§1) Since the proteins of extracellular matrix collagen and elastin are involved in wound repair, skin aging and photo-aging, the effect of topical application of NGF1-14 on the levels of these two proteins was also analyzed.
(§2) Pro-Collagen I and Elastin were measured by using commercial Elisa kits, first in a single administration test, followed by a two weeks administration test.
(§3) A similar trend was observed by analyzing the two proteins: an increase of both pro-Collagen I (A) and Elastin (B) was detected in dermis of NGF1-14 treated rats at 0.1% dose, after sonication. The effect was less appreciable without applying the ultrasounds.
(§4) The protective action of NGF1-14 at 0.1% dose (P 0.1%) was evaluated on adult skin exposed to sub-erythematous levels of UV-B (MED=60 mJ/cm^2 twice a day) first in a single administration test (one day) then for three weeks before the treatment. This experimental procedure is also refereed as Photo-AGing model (PAG) since it induces structural and molecular changes occurring in aging.

[4] = test system: pro-Collagen I; assay: Pro-Collagen I in dermis by Elisa, single administration test; assay type: in vivo, rat
Experimental: as §1, §2, §3, §4

[5] = pKa by potentiometric pH-metric titration (Sirius T3); assay type: physicochemical; details: 0.15 M KCl solution (ISA water), 25±1° C.
Experimental: Experimental pKa as well as partition and distribution coefficients (log P and log D) were determined using an automated potentiometric titrator Sirius T3 (Sirius Analytical Instruments Ltd., East Sussex, UK) equipped with an Ag/AgCl double junction reference pH electrode, a Sirius D-PAS spectrometer and a turbidity sensing device. The pH electrode was calibrated titrimetrically in the pH range 1.8-12.2. An overhead stirrer was used and a temperature probe monitored the temperature during the course of the titration. The titration experiments were conducted in 0.15 M KCl solution (ISA water) under an argon atmosphere at a temperature of 25±1° C. All tests were performed using standardized 0.5 M KOH and 0.5 M HCl as titration reagents, for the partition coefficient tests a saturated Octanol in ISA water (5% of ISA water) was used as partition solvent. The pKa is determined by potentiometric method by pH-metric titration. The powder (around 0.5 mg) was dissolved in 1.5 ml of ISA water and the titration was performed in triplicate in the pH range 2.0-12.0. Log P is performed in triplicate by dissolving the powder (around 0.7 mg) in 1 ml of ISA water followed by pH metric titration in three different percentage of Octanol (generally 50%, 60%, 70%). The predicted pKa and the calculated log P for the instrumental model was performed using ACD/Percepta.

[6] = test system: normal human melanocytes; assay: Tanning action: melanin content by ELISA; assay type: cell-based; details: cultured for a week, various concentrations
Experimental: The effect of topical application of NGF1-14 on the activation of melanocytes to produce melanin has been assessed.
According to already set up protocols, primary cell cultures of normal human melanocytes were seeded in Petri dishes and cultured for a week, with and without the presence of NGF 1-14 at various concentrations. The melanin content was measured by enzyme immunoassay ELISA.

[7] = Skin distribution of NGF1-14 gel preparation, HPLC-UV of epidermis and dermis extracts; assay type: in vivo, rat; details: 0.1% gel, following LFS, compared to vehicle
Experimental: Distribution experiments were carried out to evaluate the ability of NGF1-14 gel preparation to penetrate the corneal stratus and reach the dermis, also by using sonophoresis-like strategies to facilitate skin penetration.
Tape-striping and ultrasounds were applied on the shaved dorsal area of female adult Sprague Dawley (SD) rats (10-12 months).
Low-Frequency Sonophoresis (LFS) was applied using a Sonics Ultrasonic Processor Model VCX 400 operating at a frequency of 20 KHz (tip displacement of about 2 cm, continuous mode) for 6 or 10 minutes, according to common clinical practices, since a prolonged use of sonophoresis is known to increase skin permeation but also to a considerable thermal damage, which is not appropriate for the use (Ref. International Journal of Health Sciences & Research 477 Vol. 5; Issue: 5; May 2015: A Review on Ultrasound Parameters and Methods of Application in Transdermal Drug Delivery).
Vehicle control and NGF1-14 gel preparation were administered on the skin portion pre-treated with LFS (S) or on shaved/tape striping skin (NS).
Treatment was repeated after two hours, and rats were sacrificed to dissect skin samples 2 hours after the second gel/NGF mimetic application. […]
Quantification of NGF 1-14 was determined by HPLC-UV, on a reverse phase C4 column, eluting with phosphate buffer (pH 7.4) and acetonitrile. […]

[8] = without applying the ultrasounds

Row | Substance | phosphorylation levels of TrkA [1] | level of basal luminescence ([2]; 30 ng/ml-300 μg/ml, 4 h) | in vitro potency compared with reference standard ([2]; Negermin™ compound added at 30 μg/ml) | Ec50 (luminescence) [2] [ng/mL] | Elastin in dermis ([3]; 0.1% dose, after sonication, FIG. 5B) | Elastin in dermis [3, 8] | pro-Collagen I in dermis ([4]; 0.1% dose, after sonication, FIG. 5A) | Collagen I in dermis [4, 8] | pKa ([5]; read-out: Acid pKa) | pKa ([5]; read-out: Base pKa) | melanin content [6] | NGF1-14 level in epidermis ([7]; FIG. 3A) | NGF1-14 level in dermis ([7]; FIG. 3B)
1 | SSSHPIFHRGEFSV [NGF1-14, SSSHPIFHRGEFSV] | increased phosphorylation levels of TrkA | increases the level of basal luminescence in a dose-dependent manner | higher than reference standard Negermin™ compound, but lower than rhNGF | 290.95 | increase | slight increase | increase | comparable to the positive control value | 4.42 ± 0.05 | 7.41 ± 0.07 | An increase was observed | significant increase | significant increase
2 | rhNGF: human recombinant NGF | – | – | – | 1.4 | – | – | – | – | – | – | – | – | –
